Where no end group is shown, it is not given here.
What was measured:
AMPK = experiment: Western blot of AMPK phosphorylation in myocytes with palmitate-induced insulin metabolic disorder; assay type: cell-based, mouse; details: C2C12 myocytes in insulin metabolic disorder induced by palmitate treatment; 0.2, 2, 20 μg/mL; 24 hours; Western blot (FIGS. 7a, 7b)
Procedure: An experiment was performed to determine whether the peptide complex increases AMPK phosphorylation and SIRT1 expression levels in myocytes in a state of insulin metabolic disorder induced by palmitate treatment.
C2C12 cells, mouse-derived myoblasts, were cultured in DMEM medium containing 1% P/S and 2% BCS. When the cell confluency reached 70-80%, the cells were seeded in a 6-well culture plate. When the cell confluency in the 6-well culture plate reached 100%, the medium was replaced with differentiation medium (1% P/S, 2% horse serum), and thereafter, the differentiation medium (1% P/S, 2% horse serum) was replaced once every two days. Five days after the first replacement, the peptide complex was treated at concentrations of 0.2 μg/mL, 2 μg/mL, and 20 μg/mL and cultured for 24 hours. The group untreated with the peptide complex was used as the control. After dissolving by adding dissolution buffer thereto, the proteins obtained were centrifuged at 4° C. and 12,000 rpm for 30 minutes, and quantified using a BCA kit. The proteins were subjected to sodium dodecyl sulfate-polyacrylamide gel electrophoresis (SDS-PAGE) and then electrotransferred onto a membrane. The membrane with the proteins attached was blocked by treating it with 5% skim milk, and then the primary antibody was reacted overnight at 4° C. […]

SIRT1 (sirtuin1) protein = experiment: Western blot of SIRT1 protein expression in palmitate-treated adipocytes (insulin metabolic disorder); assay type: cell-based; details: 3T3-L1 adipocytes, 25 μM palmitate 30 minutes; 0.2, 2, 20 μg/mL; 24 hours; Western blot (FIGS. 3a, 3b)
Procedure: An experiment was performed to determine whether the peptide complex prepared in Preparation Example 1 increases the phosphorylation of AMP-activated protein kinase (AMPK) and the expression level of SIRT1 (sirtuin1) protein in adipocytes in a state of insulin metabolic disorder induced by palmitate treatment.
When 3T3-L1 preadipocytes reached 80% confluence, they were seeded at 5×10^3 cells/well in a 96-well plate and used for the experiment. Two days after reaching confluence, the medium was replaced with a differentiation-inducing medium to induce the differentiation into adipocytes, and two days after the induction, the cells were cultured for 2 days in a medium containing 10% FBS and 10 μg/mL insulin, and then the medium was replaced with 10% FBS every 2 days until their differentiation into adipocytes. Once differentiation was complete, the medium was replaced with a serum-free medium and cultured for 4 hours to induce starvation. After 30 minutes of treatment with 25 μM palmitate, the peptide complexes were treated at concentrations of 0.2 μg/mL, 2 μg/mL, and 20 μg/mL and incubated for 24 hours. After dissolving by adding dissolution buffer, the proteins obtained by centrifugation at 4° C. and 12,000 rpm for 30 minutes were quantified using a BCA kit. […]

[1] = tested on: inflammatory cytokine TNFα; experiment: Western blot of TNFα expression in adipocytes with palmitate-induced inflammation; assay type: cell-based; details: 3T3-L1 adipocytes, inflammation induced by 25 μM palmitate; 0.2, 2, 20 μg/mL; 24 hours; Western blot vs PA control (FIGS. 5a, 5b)
Procedure: An experiment was performed to determine whether the peptide complex prepared in Preparation Example 1 induces a decrease in the phosphorylation of IκBα and a decrease in the expression level of the inflammatory cytokine TNFα in adipocytes under an inflammatory state induced by palmitate treatment.
When 3T3-L1 preadipocytes reached 80% confluence, they were seeded at 5×10^3 cells/well in a 96-well plate and used for the experiment. Two days after reaching confluence, the medium was replaced with a differentiation-inducing medium to induce the differentiation into adipocytes. Two days after the induction, the cells were cultured for 2 days in a medium containing 10% FBS and 10 μg/mL insulin, and then the medium was replaced with 10% FBS every days 2 until their differentiation into adipocytes. Once the differentiation was complete, the medium was replaced with a serum-free medium and cultured for 4 hours to induce starvation. After treating with 25 μM palmitate for 30 minutes, the peptide complexes were treated at concentrations of 0.2 μg/mL, 2 μg/mL, and 20 μg/mL and incubated for 24 hours. The control group (PA) was treated only with palmitate but not with the peptide complex. After dissolving by adding dissolution buffer thereto, the proteins obtained by centrifugation at 4° C. and 12,000 rpm for 30 minutes were quantified using a BCA kit. […]

In the case of “peptide complex: prepared by mixing equal amounts of the peptide of SEQ ID NO: 1 (LKTRN) and the peptide of SEQ ID NO: 2 (KGSATGWMA) (also: mixture of two peptides)”, the “phosphorylation of AMPK” value (AMPK) is reported as “increased”, the “expression level of SIRT1 protein” value (SIRT1 (sirtuin1) protein) is reported as “increased” and the “expression level of TNFα” value [1] is reported as “reduced”.

Source: patent US20260234185A1, “ANTI-AGING COMPOSITION COMPRISING PEPTIDE COMPLEX AS ACTIVE INGREDIENT” (priority 2023, published 2026)
